Experimental data from US20160108414A1, “GROWTH-RELATED ENOX PROTEINS FROM PLANTS WITH YIELD ENHANCEMENT POTENTIAL, SEQUENCES AND METHODS” (Mor-NuCo Enterprises, Inc., priority 2013, published 2016).
Several values for one entry are separate records, joined by “and”; a condition that tells them apart may be missing. Identical values can stand only once.

Legend:
recombinant human ENOX2 = target: T1, recombinant human ENOX2 (Homo sapiens, UniProt Q16206); test: Inhibition of recombinant human ENOX2 assayed in parallel; assay type: biochemical; conditions: read-out: inhibition of recombinant human ENOX2
T1 sequence (Q16206 1-610): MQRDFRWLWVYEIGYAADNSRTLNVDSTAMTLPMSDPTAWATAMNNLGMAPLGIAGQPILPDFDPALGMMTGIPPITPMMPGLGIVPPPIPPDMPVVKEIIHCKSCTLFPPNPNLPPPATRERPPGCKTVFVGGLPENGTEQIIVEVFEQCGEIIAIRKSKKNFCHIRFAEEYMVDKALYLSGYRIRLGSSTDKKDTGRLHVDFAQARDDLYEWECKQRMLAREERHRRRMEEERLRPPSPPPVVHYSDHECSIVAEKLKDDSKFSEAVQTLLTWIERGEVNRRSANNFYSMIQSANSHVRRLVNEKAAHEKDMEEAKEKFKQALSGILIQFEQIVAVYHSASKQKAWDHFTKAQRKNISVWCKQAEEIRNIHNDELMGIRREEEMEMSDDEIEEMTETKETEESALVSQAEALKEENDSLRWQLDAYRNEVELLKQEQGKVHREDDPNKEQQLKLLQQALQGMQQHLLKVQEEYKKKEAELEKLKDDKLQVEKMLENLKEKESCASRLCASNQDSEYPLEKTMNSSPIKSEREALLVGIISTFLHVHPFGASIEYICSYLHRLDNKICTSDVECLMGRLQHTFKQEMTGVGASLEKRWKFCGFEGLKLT
Text: Simalikalactone D is a general ENOX1 inhibitor.

[1] = tested on: recombinant Arabidopsis ENOX1; test: NADH oxidase activity of IEF-purified recombinant Arabidopsis ENOX1; assay type: biochemical; conditions: recombinant protein expressed in bacteria, FIG. 14
Protocol: Cells were centrifuged at 5,000 g for 6 min. Pellets were then resuspended in 20 mM Tris-HCl, pH 8.0, containing 0.5 mM PMSF, 1 mM benzamidine and 1 mM 6-aminocaproic and lysed by three passages through a French pressure cell (SLM Aminco) at 20,000 psi. Expression of the recombinant Arabidopsis ENOX1 of about 14 kDa was confirmed by SDS-PAGE with silver staining. Transformed cells were stored at −80° C. in a standard glycerol stock solution. The Arabidopsis ENOX1 proteins were further purified on Criterion IEF gels (Bio-Rad, Hercules, Calif.). The IEF gel was cut into seven equal segments. The pH represented by each slice was based on IEF standards (Bio-Rad). The slices were soaked in 15 mM Tris-Mes buffer, pH 7, at 4° C. for overnight with shaking. The gel-free extracts were assayed for ENOX1 activity.
(§1) Oxidation of NADH was determined spectrophotometrically from the disappearance of NADH measured at 340 nm in a reaction mixture containing 25 mM Tris-MES (pH 7.2), 100 μM GSH, 1 mM KCN to inhibit mitochondrial oxidase activity, 150 μM NADH and the enzyme at 37° C. with temperature control (±0.5° C.) and stirring. Prior to assay, 1 μM reduced glutathione was added to reduce the protein in the presence of substrate. After 10 min, 0.03% hydrogen peroxide was added to reoxidize the protein under renaturing conditions and in the presence of substrate to start the reaction. Activities were measured using paired Hitachi U3210 or paired SLM Aminco 2000 spectrophotometers both with continuous recording. Assays were run for 1 min and were repeated on the same sample at intervals of 1.5 min for the times indicated. An extinction coefficient of 6.22 cm^−1 mM^−1 was used to determine specific activity.
IEF purified ENOX1 was concentrated to 0.7 mg/ml by using a Centricon concentrator (Millipore Corporation, Danvers, Mass.) fitted with a 10,000 nominal molecular weight limit ultracel YM membrane. Samples (50 μl) were combined with 1 μl of trifluoroacetic acid (TFA) in the presence or absence of 15 μl 10 mM bathocuproine. After 2 h of incubation at room temperature, the samples were dialyzed (Spectra/Pro Dialysis membrane, molecular weight cut-off 6-8,000, Spectrum Laboratories (Rancho Dominguez, Calif.) against 20 mM Tris-HCl, pH 8, at 4° C. overnight.

soybean shoots = test: Shoot growth of excised soybean shoots in TR-III solutions; assay type: in vivo; conditions: narrow range, FIG. 18
Text: FIG. 18. As in FIG. 17, except untreated seeds were germinated and excised shoots were transferred to TR-III solutions of different concentrations prepared in water.

375 NR soybeans = test: TR-III spray, greenhouse soybeans, plant height above cotyledons; assay type: in vivo, soybean; design: Plant height above cotyledons: unit not given beside the values; conditions: for Plant height above cotyledons: single experiments, 10 days after spraying
soybean plants = test: TR-III spray, greenhouse soybeans from untreated seed, epicotyl enlargement; assay type: in vivo
Text: FIG. 20. As in FIG. 19, except plants were from untreated seed and sprayed with different rates of TR-III.

plasma membrane ENOX1 = test: Plasma membrane ENOX1 activity with added cysteine; assay type: biochemical, soybean; conditions: for ENOX1: +100 μM cysteine
soybeans = test: Soybean field experiment with TR-III foliar spray, standability; assay type: in vivo; conditions: 0.01 lb/A foliar spray; No TR-III plants severely lodged
Text: FIG. 21. Pods per plant of soybeans in a field experiment comparing no TR-III (solid symbols) with 0.01 lb/A TR-III (open symbols, dashed lines) as a foliar spray applied July 3. FIG. 23. Standability of soybeans from the field experiment of FIG. 21. No TR-III plants (left) were severely lodged.

dNOX (ABP-20) [2] = target: T2, dNOX (ABP-20) (Prunus persica, UniProt O04011, C44A/DUP151-151); test: NADH oxidation of dNOX (ABP-20) site-directed mutants; assay type: biochemical; conditions: versus wild type
T2 construct: made in house; host or cells: E. coli BL21 (DE3), pET11b (as for the unmodified protein; not repeated for the mutants)
Protocol: as §1
(§2) Amino acids indicated were replaced by alanines by site-directed mutagenesis according to Braman et al. (Braman, J., Papworth, C. and Greener, A. 1996. Methods Mol. Biol. 57:32-44). Numbered amino acids and nucleotide positions of splice variant products refer to numbers assigned to amino acids of the full length transcript

dNOX (ABP-20) [3] = test: as above; assay type: biochemical
Protocol: as §1, §2

dNOX (ABP-20) [4] = target: T2, dNOX (ABP-20); test: DTDP (protein disulfide-thiol) interchange of dNOX (ABP-20) site-directed mutants; assay type: biochemical; conditions: versus wild type
Protocol: (§3) Protein disulfide-thiol interchange was determined spectrophotometrically from the increase in absorbance at 340 nm resulting from the cleavage of dithiodipyridine (DTDP (Morré, D. J., Gomez-Rey, M. L., Schramke, C., Em, O., Lawler, J., Hobeck, J. and Morré, D. M. 1999. Mol. Cell. Bochem. 200: 7-13). DTDP cleavage was buffered (50 mM Tris-MES, pH 7). The assay was preincubated (1 h at room temperature) with 0.5 μmoles 2,2′-dithiodipyridine (DTDP) in 5 μl of DMSO to react with endogenous reductants present with the plasma membranes. After 10 min, a further […] DTDP were added in 35 μl DMSO to start the reaction. The final reaction volume was […]. The reaction was monitored from the increase in absorbance at 340 nm. Specific activities were calculated using a milimolar absorption coefficient of 6.21.
as §2

dNOX (ABP-20) [5] = test: as above; assay type: biochemical
Protocol: as §3, §2

T2 sequence (O04011 other isoform, or with tags, fused parts or gaps C44A/DUP151-151): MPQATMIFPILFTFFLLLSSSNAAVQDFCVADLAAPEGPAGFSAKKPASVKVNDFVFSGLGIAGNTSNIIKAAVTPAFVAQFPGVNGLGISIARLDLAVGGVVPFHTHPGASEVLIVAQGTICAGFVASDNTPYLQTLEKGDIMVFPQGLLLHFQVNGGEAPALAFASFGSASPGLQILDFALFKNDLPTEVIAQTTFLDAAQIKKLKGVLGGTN

Oc1ccc(C2=Cc3ccc(O)cc3OC2)cc1 [Phenoxodiol]
inhibition at 10 µM (recombinant human ENOX2): > 90%

N[C@@H](CS)C(=O)O [TR-III, cysteine]
Stimulation of NADH oxidation [1]: specific for maximum (3) | concentration range stimulating shoot growth (soybean shoots): around 10^−7 M | Plant height above cotyledons, Ave + MAD (375 NR soybeans; spray 0.001 lb/A, 0 lb/A: 13.6 ± 0.3): 14.7 ± 0.1 | Plant height above cotyledons (375 NR soybeans; spray 0.001 lb/A, 0 lb/A: 13.3, 13.9): 14.8 and 14.6 | Plant height above cotyledons, Ave + MAD (375 NR soybeans; spray 0.01 lb/A): 14.4 ± 0.1 | Plant height above cotyledons (375 NR soybeans; spray 0.01 lb/A): 14.3 and 14.5 | Plant height above cotyledons, Ave + MAD (375 NR soybeans; spray 0.1 lb/A): 15.2 ± 0.7 | Plant height above cotyledons (375 NR soybeans; spray 0.1 lb/A): 14.4 and 15.9 | Epicotyl enlargement (soybean plants; spray 0.001 or 0.1 lb/A): little or no effect | Epicotyl enlargement (soybean plants; spray 0.01 lb/A): Epicotyl enlargement was observed | response of plasma membrane ENOX1 activity to added cysteine (plasma membrane ENOX1; 100 μM, both ST-109-2-4 and Williams 82): about 12% | ENOX1 (plasma membrane ENOX1; plasma membranes of Williams 82 ISU, −cysteine 0.060 ± 0.003): 0.072 ± 0.003 μmoles/min/mg protein | ENOX1 (plasma membrane ENOX1; plasma membranes of transgenic ST-109-2-4, −cysteine 0.110 ± 0.004): 0.123 ± 0.005 μmoles/min/mg protein | Standability (lodging) (soybeans): did not lodge

B1: C44A: ABP-20 with C44 replaced by alanine (CKK motif) (protein, UniProt O04011 24-214, looked up, variant C44A)
Auxin-binding protein ABP20: AVQDFCVADLAAPEGPAGFSAKKPASVKVNDFVFSGLGIAGNTSNIIKAAVTPAFVAQFPGVNGLGISIARLDLAVGGVVPFHTHPGASEVLIVAQGTICAGFVASDNTPYLQTLEKGDIMVFPQGLLHFQVNGGEAPALAFASFGSASPGLQILDFALFKNDLPTEVIAQTTFLDAAQIKKLKGVLGGTN
reduction of NADH oxidation activity (dNOX (ABP-20) [2]): 81% | NADH Oxidation (dNOX (ABP-20) [3]): 0.15 ± 0.05 μmoles/min/mg protein | reduction of protein disulfide-dithiol interchange activity (dNOX (ABP-20) [4]): 81% | DTDP Interchange (dNOX (ABP-20) [5]): 0.02 ± 0.01 μmoles/min/mg protein
